Test results published in paper PMC7985297 (Communications Biology, 2021).
Where “and” joins values, the source holds several entries; their conditions need not be identical. Identical values can stand only once.

Columns and labels:
PC-3 cells = assay: BrdU incorporation assay, PC-3; type: cell-based, human; conditions: − R1881; ENZ 10 µM, EPI-002 25 µM, JUG 20 µM, ATRA 10 µM
Experimental: (§1) Cells were treated with the inhibitors and stimulated with 1 nM of R1881 (+) or vehicle (−) for 24 to 72 h. Each data point represents the average from an independent experiment where the error bars show the mean ± s.e.m.
(§2) BrdU incorporation was determined with the colorimetric BrdU ELISA kit (Roche Diagnostics), according to the manufacturer’s protocol. In brief, cells were seeded in 96-well plates (LNCaP, 5000/well; LN95, 8000/well; PC-3 and DU145, 4000/wells) in media with reduced serum (0.5–1%). On the following day, cells were pre-treated with test compounds for 1 h and then incubated with 0.1 nM of R1881. After the indicated incubation times, cells were labeled with 10 μM of BrdU for 2 h and then fixed for the assay.

LN95 cells [1] = assay: Colony formation of LN95 cells; type: cell-based, human; conditions: LN95, ATRA 5 or 10 µM, EPI-002 25 µM, treated 24 hours then re-plated
Experimental: page 5: Supplementary Figure 5 a b […] (a) Representative images of colonies from LN95 cells after […] EPI-002. After treating with compounds for 24 hours, the media was removed, and 500 -1,000 cells were re-plated in 6-well plates. Colonies were fixed with 4% paraformaldehyde, stained with a 0.1% crystal violet solution, and then imaged. […]

[2] = led to excessive pill burden; cited from earlier work
[3] = target: T1, human AR NTD (AR1–558) fused to Gal4DBD (Gal4-ARN) (Homo sapiens, UniProt P10275); assay: AR NTD transactivation assay (Gal4-ARN) in LNCaP cells; type: cell-based; conditions: EPI-002 25 μM, juglone 20 μM, ATRA 10 μM, 24 h
T1 construct: construct encoding the human AR1–558 of the NTD fused to a Gal4DBD (Gal4-ARN); expressed in transfected cells; host or cells: LNCaP
T1 sequence (P10275 1-558): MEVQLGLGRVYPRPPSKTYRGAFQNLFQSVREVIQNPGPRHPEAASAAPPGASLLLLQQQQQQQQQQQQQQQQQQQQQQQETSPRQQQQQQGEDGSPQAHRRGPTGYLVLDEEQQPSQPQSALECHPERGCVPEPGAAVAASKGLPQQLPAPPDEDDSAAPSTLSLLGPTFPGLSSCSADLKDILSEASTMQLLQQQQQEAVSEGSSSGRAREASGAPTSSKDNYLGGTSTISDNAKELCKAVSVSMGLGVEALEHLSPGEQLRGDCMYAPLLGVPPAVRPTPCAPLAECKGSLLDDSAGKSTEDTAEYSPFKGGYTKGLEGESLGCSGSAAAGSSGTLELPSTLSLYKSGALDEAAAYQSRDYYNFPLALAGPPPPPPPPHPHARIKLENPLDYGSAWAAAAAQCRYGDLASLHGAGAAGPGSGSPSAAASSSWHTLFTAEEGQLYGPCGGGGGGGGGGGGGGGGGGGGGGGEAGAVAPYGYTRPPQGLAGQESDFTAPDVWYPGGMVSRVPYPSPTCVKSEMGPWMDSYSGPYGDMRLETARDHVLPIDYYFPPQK
Text: The remaining putative Pin1-binding sites are within the intrinsically disordered AR NTD that contains transcription activation units, Tau-1 and Tau-5, to mediate androgen-dependent and androgen-independent transactivation, respectively[5],[30]. The loss of AR-LBD shifts the location of transcriptional activity from Tau-1 with androgen, to Tau-5 in the absence of LBD[30].
Error bars show the mean ± s.e.m. *P < 0.05, **P < 0.01, ***P < 0.001; ns not significant.

full-length AR = target: T2, full-length AR (Homo sapiens, UniProt P10275, T878A); assay: PSA(6.1 kb)-luciferase AR-driven reporter assay in LNCaP cells; type: cell-based; conditions: for fractional response (Fig. 5g): monotherapy or with 5 µM ATRA
T2 construct: Transcriptional activity of full-length AR was assessed in LNCaP cells; endogenous in cells; host or cells: LNCaP
T2 sequence (P10275 1-920 T878A): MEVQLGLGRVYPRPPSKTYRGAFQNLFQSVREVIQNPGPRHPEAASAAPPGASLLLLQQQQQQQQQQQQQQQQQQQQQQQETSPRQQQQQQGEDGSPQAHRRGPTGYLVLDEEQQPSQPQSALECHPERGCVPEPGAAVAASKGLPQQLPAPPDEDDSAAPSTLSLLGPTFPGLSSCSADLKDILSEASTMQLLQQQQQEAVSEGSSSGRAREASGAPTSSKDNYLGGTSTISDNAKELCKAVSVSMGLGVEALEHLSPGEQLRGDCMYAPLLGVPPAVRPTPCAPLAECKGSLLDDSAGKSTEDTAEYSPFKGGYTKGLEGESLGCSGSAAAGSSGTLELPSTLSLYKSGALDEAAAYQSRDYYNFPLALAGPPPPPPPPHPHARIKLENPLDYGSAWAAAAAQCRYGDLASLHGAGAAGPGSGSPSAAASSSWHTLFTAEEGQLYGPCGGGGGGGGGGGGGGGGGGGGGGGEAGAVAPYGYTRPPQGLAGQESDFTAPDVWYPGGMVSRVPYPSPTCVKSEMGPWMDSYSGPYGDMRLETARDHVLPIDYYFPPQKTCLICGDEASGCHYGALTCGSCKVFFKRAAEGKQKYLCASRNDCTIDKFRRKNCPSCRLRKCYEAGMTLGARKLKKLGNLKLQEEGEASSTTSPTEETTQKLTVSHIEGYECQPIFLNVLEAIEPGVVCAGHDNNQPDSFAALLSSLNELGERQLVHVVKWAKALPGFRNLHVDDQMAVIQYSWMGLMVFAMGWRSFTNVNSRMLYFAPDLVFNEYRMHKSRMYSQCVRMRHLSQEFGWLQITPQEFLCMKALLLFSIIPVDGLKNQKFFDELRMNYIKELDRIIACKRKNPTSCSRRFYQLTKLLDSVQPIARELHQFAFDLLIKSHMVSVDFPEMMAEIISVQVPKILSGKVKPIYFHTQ

LN95 cells [4] = assay: Senescence-associated β-galactosidase staining, LN95; conditions: LN95, ATRA 10 μM, EPI-002 25 μM, 3 days
Experimental: β-galactosidase activity at suboptimal pH (6.0) was used as a marker to detect cellular senescence[42]. Cells were seeded in four-well chamber slides at a density of 8000-10,000 cells. […] Three days later, the media was removed and cells were fixed with 2% formaldehyde/0.2% glutaraldehyde for 10 min at room temperature, washed with PBS, and then incubated with freshly prepared β-Gal staining solution (Cell Signaling) titrated to pH 6.0. Staining was optimal after incubating with the β-Gal solution at 37 °C for 16–18 h. After staining, the slides were washed twice with PBS, once with absolute methanol, and then mounted with 50% glycerol/PBS. The percentage of β-galactosidase-positive cells were counted with ImageJ using the Cell Counter plugin. A total of nine images containing 100–300 cells were scored to determine the percentages of positive cells.

DU145 cells = assay: BrdU incorporation assay, DU145; type: cell-based, human; conditions: − R1881; ENZ 10 µM, EPI-002 25 µM, JUG 20 µM, ATRA 10 µM
Experimental: as §1, §2

AR-V7 = AR-V7 (Homo sapiens, UniProt P10275); assay: Transcriptional reporter assay for AR-V7 (V7BS3-luciferase) in LNCaP cells; conditions: enzalutamide 10 µM, EPI-002 25 µM, juglone 20 µM, ATRA 10 µM, 24 h
AR-V7, sequence (P10275 1-644 isoform P10275-3): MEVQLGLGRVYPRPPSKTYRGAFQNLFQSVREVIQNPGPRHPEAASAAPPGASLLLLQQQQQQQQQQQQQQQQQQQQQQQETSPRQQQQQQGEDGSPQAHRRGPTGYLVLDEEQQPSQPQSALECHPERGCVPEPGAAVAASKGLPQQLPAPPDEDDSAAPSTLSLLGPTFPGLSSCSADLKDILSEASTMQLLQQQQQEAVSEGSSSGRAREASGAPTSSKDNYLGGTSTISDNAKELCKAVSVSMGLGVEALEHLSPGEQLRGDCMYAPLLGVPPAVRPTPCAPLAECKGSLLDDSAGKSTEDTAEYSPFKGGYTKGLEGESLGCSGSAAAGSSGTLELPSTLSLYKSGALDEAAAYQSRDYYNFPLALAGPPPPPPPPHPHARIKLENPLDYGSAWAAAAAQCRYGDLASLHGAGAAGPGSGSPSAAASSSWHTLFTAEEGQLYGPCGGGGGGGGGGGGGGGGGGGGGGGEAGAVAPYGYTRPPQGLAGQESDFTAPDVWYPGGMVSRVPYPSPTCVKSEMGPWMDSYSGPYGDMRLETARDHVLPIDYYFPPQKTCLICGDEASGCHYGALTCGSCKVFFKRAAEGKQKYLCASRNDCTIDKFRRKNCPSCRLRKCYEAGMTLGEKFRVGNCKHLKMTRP

LN95 cells [5] = assay: BrdU incorporation assay, LN95; type: cell-based, human; conditions: ENZ 10 µM, EPI-002 25 µM, JUG 20 µM, ATRA 10 µM
Experimental: as §1, §2

CC(C)(c1ccc(OC[C@H](O)CO)cc1)c1ccc(OC[C@H](O)CCl)cc1 [ralaniten]
BrdU incorporation, PC-3 (Fig. 4c) (PC-3 cells): 0.683 and 1.048 and 0.96 and 1.348
effect on colony formation (LN95 cells [1]): significantly reduced the number of colonies
pharmacokinetics in clinical testing [2]: poor pharmacokinetics
effect on IL-6-induced transactivation of AR NTD (Gal4-ARN) ([3]; IL-6 50 ng/mL): both blocked
effect on forskolin-induced transactivation of AR NTD (Gal4-ARN) ([3]; forskolin 25 μM): both blocked
inhibition of reporter activity at highest concentration (full-length AR; 40 µM of ralaniten): ~ 98%
fractional response (Fig. 5g) (full-length AR; EPI-002 20 μM): 0.8041 and 0.7145 and 0.7078 and 0.8391
fractional response (Fig. 5g) (full-length AR; EPI-002 40 μM): 0.9915 and 0.9757 and 0.9847 and 0.9439
SA β-gal-positive cells (LN95 cells [4]): 31%
BrdU incorporation, DU145 (Fig. 4d) (DU145 cells): 0.692 and 0.859 and 0.62
effect on AR-V7-induced V7BS3-luciferase reporter activity (AR-V7): decreased AR-V7-induced reporter activity
effect on proliferation of LN95 cells (LN95 cells [5]): attenuated the proliferation of LN95 cells
